# Data as given in the supplement of paper PMC10307832.
# Tests used:
# Assay in all cases: relative viability (nuclei count vs DMSO), 5 days (fraction); higher = more cells survive
# Bortezomib + Palbociclib = compound: CC(C)C[C@H](NC(=O)[C@H](Cc1ccccc1)NC(=O)c1cnccn1)B(O)O [Bortezomib] + CC(=O)c1c(C)c2cnc(Nc3ccc(N4CCNCC4)cn3)nc2n(C2CCCC2)c1=O [Palbociclib] (partner 0.5 µM)
# Method in brief: (§1)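 Lung cancer cell lines in 1536-well plates got either a single drug or a fixed anchor-drug dose together with five library-drug doses (not always all listed) in √10 steps, by pin tool, on the day after seeding. Nuclei were counted after 5 days, and relative viability is the treated-to-vehicle ratio of nuclei counts. Values are medians of duplicate plates.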
# Obatoclax + Phenformin = compound: COC1=CC(c2cc3ccccc3[nH]2)=N/C1=C\c1[nH]c(C)cc1C [Obatoclax] + N=C(N)NC(=N)NCCc1ccccc1 [Phenformin] (partner 250 µM)
# Method in brief: as §1
# Bortezomib + Vorinostat = compound: CC(C)C[C@H](NC(=O)[C@H](Cc1ccccc1)NC(=O)c1cnccn1)B(O)O [Bortezomib] + O=C(CCCCCCC(=O)Nc1ccccc1)NO [Vorinostat] (partner 1 µM)
# Method in brief: as §1
# Obatoclax + Olaparib = compound: COC1=CC(c2cc3ccccc3[nH]2)=N/C1=C\c1[nH]c(C)cc1C [Obatoclax] + O=C(c1cc(Cc2n[nH]c(=O)c3ccccc23)ccc1F)N1CCN(C(=O)C2CC2)CC1 [Olaparib] (partner 8 µM)
# Method in brief: as §1
Cell Line,relative viability (Bortezomib + Palbociclib; first compound 0.0002 µM),relative viability (Bortezomib + Palbociclib; first compound 0.000632 µM),relative viability (Bortezomib + Palbociclib; first compound 0.002 µM),relative viability (Bortezomib + Palbociclib; first compound 0.006325 µM),relative viability (Bortezomib + Palbociclib; first compound 0.02 µM),relative viability (Obatoclax + Phenformin; first compound 0.01 µM),relative viability (Obatoclax + Phenformin; first compound 0.03162 µM),relative viability (Obatoclax + Phenformin; first compound 0.1 µM),relative viability (Obatoclax + Phenformin; first compound 0.3162 µM),relative viability (Obatoclax + Phenformin; first compound 1 µM),relative viability (Bortezomib + Vorinostat; first compound 0.0002 µM),relative viability (Bortezomib + Vorinostat; first compound 0.000632 µM),relative viability (Bortezomib + Vorinostat; first compound 0.002 µM),relative viability (Bortezomib + Vorinostat; first compound 0.006325 µM),relative viability (Bortezomib + Vorinostat; first compound 0.02 µM),relative viability (Obatoclax + Olaparib; first compound 0.01 µM),relative viability (Obatoclax + Olaparib; first compound 0.03162 µM),relative viability (Obatoclax + Olaparib; first compound 0.1 µM),relative viability (Obatoclax + Olaparib; first compound 0.3162 µM),relative viability (Obatoclax + Olaparib; first compound 1 µM)
NCI-H2126,0.365,0.349,0.369,0.328,0.208,0.544,0.517,0.504,0.526,0.454,0.693,0.875,0.751,0.641,0.478,0.872,0.851,0.903,0.865,0.918
NCI-H2170,0.376,0.394,0.402,0.221,0.125,0.362,0.414,0.396,0.419,0.437,0.746,0.722,0.972,0.173,0.121,0.574,0.607,0.574,0.585,0.655
NCI-H2228,0.587,0.843,0.72,0.0946,0.0943,0.339,0.387,0.3,0.285,0.159,0.694,0.73,0.101,0.124,0.108,0.583,0.521,0.62,0.489,0.405
NCI-H2342,0.578,0.502,0.54,0.534,0.357,0.744,0.573,0.737,0.48,0.584,1.01,0.789,0.838,0.748,0.627,0.419,0.409,0.448,0.515,0.473
NCI-H2347,0.401,0.497,0.406,0.292,0.231,0.496,0.366,–,0.506,0.517,0.621,0.526,0.384,0.28,0.235,0.56,0.572,0.528,0.524,0.476
NCI-H2405,0.503,0.547,0.349,0.143,0.141,0.411,0.394,–,0.402,0.411,0.977,1.02,0.812,0.133,0.119,0.911,0.981,–,0.935,0.734
NCI-H3122,0.197,0.204,0.205,0.135,0.102,0.385,0.404,0.317,0.386,0.351,0.993,1.07,1.46,0.515,0.108,0.655,0.517,0.642,0.613,0.678
PC-3 [JPC-3],0.521,0.583,0.413,0.285,0.227,0.477,0.486,0.511,0.473,0.489,0.675,0.82,0.444,0.22,0.203,1.09,1.25,1.02,1,0.514
PC-14,0.53,0.506,0.412,0.045,0.052,0.551,0.612,0.308,0.425,0.281,0.778,0.717,0.365,0.0298,0.0377,0.285,0.306,0.14,0.0684,0.081
RERF-LC-KJ,1.18,1.03,1.05,0.224,0.19,0.37,0.441,0.459,0.45,0.434,0.661,0.726,0.624,0.463,0.219,0.897,0.903,0.897,0.863,0.33
SK-LU-1,0.387,0.361,0.359,0.279,0.158,0.587,0.507,0.414,0.246,0.244,0.733,0.84,0.314,0.178,0.186,0.448,0.468,0.372,0.447,0.347
SK-MES-1,0.317,0.321,0.296,0.159,0.179,0.642,0.704,0.558,0.361,0.273,1.08,1.1,1,0.164,0.158,0.641,0.655,0.495,0.172,0.17
SW 900,0.504,0.37,0.203,0.2,0.195,0.556,0.584,0.726,0.493,0.325,0.482,0.54,0.163,0.169,0.173,0.893,0.803,0.924,0.703,0.606
SW 1573,0.346,0.419,0.171,0.055,0.0399,0.333,0.31,0.282,0.24,0.153,0.676,1.02,0.313,0.0435,0.0242,0.488,0.529,0.363,0.149,0.179
UMC-11,0.3,0.334,0.294,0.295,0.214,0.303,0.294,0.291,0.272,0.242,0.365,0.399,0.41,0.112,0.0837,0.316,0.448,0.43,0.415,0.289
